Assays:
[1] = system: NMDA receptor-induced excitotoxicity in primary cortical neuronal cells; test: NMDA survival assay (LDH release); settings: 30-50 μM pre-treated 2 hours, NMDA 20 min (FIG. 17)
Method: Embryonic rat cortical neurons (11 DIV) were pre-treated with various concentrations of AG—0 (0.1 -30 μg/mL) and then co-incubated with NMDA (20 μM). After 20 min, the medium was replaced with fresh medium, and after overnight incubation lactate dehydrogenase (LDH) released into the medium was measured. Cell death was calculated as a percentage compared to solvent control (“CTL without NMDA”). Assays were conducted in duplicate and repeated at least twice. *=P<0.05.
Cortical neurons were plated on 48-well plate (Nunc) at a density of 1.1×10^5 cells per well and cultured for 11-12 days (11-12 DIV). Neurons were pre-treated with the test compounds for 2 hours prior to N-Methyl-D-Aspartate (NMDA, Sigma) or glutamate (MSG, Sigma) treatment. Briefly, the neurons were rinsed with Locke's solution (5 mM potassium chloride, 128 mM sodium chloride, 2.7 mM calcium chloride, 1 mM di-sodium hydrogen orthophosphate, 5 mM HEPES and 10 mM glucose in Milli-Q water) without Mg^2+, followed by incubation in Locke's solution with addition of glycine (0.1 μM) for 15 minutes. After the incubation, the neurons were co-treated with the test compound (dissolved in Locke's plus glycine solution) and NMDA (20 μM) or glutamate for 20 min. Neurons were then rinsed with Locke's solution containing Mg^2+ and replaced with fresh growth medium. Cell death was assayed and quantified using the lactate dehydrogenase release assay (Cytotoxicity Detection Kit, Roche). Data was compared to a DMSO vehicle control and represented in mean±SEM. The student t-test was used for statistical analysis.

[2] = system: rat cortical neurons cultured in the absence of B27; test: Cortical neuron survival assay with B27 withdrawal (MTT); format: cell-based; settings: for cell survival of cortical neurons in the absence of B27 (MTT): 30 μM, pre-treated 24 hours (FIG. 15); for concentration showing neuroprotective effect in the absence of B27 (MTT): primary cortical neurons 7DIV, dose-dependent study 1-30 μM
Method: FIG. 2. Adelostemma gracillimum refined fraction promotes rat cortical neuron survival against B27 withdrawal. Cortical neurons isolated from embryonic day 18 rats were cultured in Neurobasal medium supplemented with 2 % B27. […] A MTT assay was performed 24 hours later. Cell survival is presented as a percentage compared to a DMSO control in the presence of B27 (“CTL with B27”). Assays were conducted in triplicate and repeated at least twice. *=P<0.05.
Primary cortical neurons were cultured in Neurobasal medium and supplemented with B27, a proprietary formula of Life Technologies. The combination of Neurobasal medium and B27 provides a stable growth environment for primary neurons to maturity in vitro. Neurons undergo apoptosis or cell death in the absence of B27. To study the neuroprotective effect of Adelostemma gracillimum refined fraction, neurons of 7DIV were treated with AG-0 and cell survival was measured as mitochondrial activity by the MTT assay.
(§1) The cells were then washed with Hanks' solution twice and replaced with test samples that were serial diluted in Neurobasal medium. A tetrazole, 3-(4,5-Dimethylthiazol-2-yl)-2,5-diphenyltetrazolium bromide (MTT, 5 mg/ml) was added to the medium at a ratio of 1:10 after a 2-day incubation. MTT is reduced by living cells into purple formazan and further solubilized in 20% SDS solution; therefore, the colored solution was measured by spectrophotometer and cell viability was quantified.

[3] = system: Aβ25-35-treated primary cortical neurons; test: Cortical neuron survival assay with amyloid-beta peptide insult (MTT); format: cell-based, rat; settings: 50 μM, except GAG-C69 at 30 μM; Aβ25-35 10 μM (FIG. 19)
Method: FIG. 4. […] After overnight incubation, the MTT assay was performed. Cell survival was calculated as a percentage compared to vehicle control (“CTL no Abeta”).
Exogenous addition of amyloid beta peptide (Aβ) initiates cell death of neuronal cultures via apoptosis.
as §1, with “incubated” for “washed with Hanks' solution twice and replaced”, “and amyloid-beta peptide fragment 25-35 (Aβ, 10 μM, Sigma)” for “that were serial diluted”, “growth” for “Neurobasal”, “24-hr” for “a 2-day”

[4] = system: phosphorylated ERK, CREB, Akt, P38, MEK in cortical neurons; test: Western blot detection of signaling proteins in cortical neurons; format: cell-based, rat; settings: cortical neurons 7DIV
[5] = system: cyclic AMP response (CRE) element; test: CRE-dependent transcription assay (luciferase); format: cell-based, rat; settings: hippocampal neurons 12DIV, 50 μM, 6 hours
Method: FIG. 41. GAG compounds enhance CRE-dependent transcription activity. GAG-C14 (a), GAG-C53 (b), GAG-C63 (c), GAG-C69 (d), GAG-C84 (e), GAG-C111 (f), GAG-C122 (g), GAG-C123 (h), and GAG-C129 (i) induce CRE-dependent transcriptional activity in cultured hippocampal neurons. On the day of cell seeding, hippocampal neurons were transfected with a firefly luciferase reporter plasmid containing cyclic AMP response (CRE)-element. The cells at 12 DIV were then treated with 50 μM of AG compounds for 6 hours. Data are mean±SEM (n=3-4), *=P<0.05, **=P<0.01, and ***=P<0.005 versus vehicle-treated cells (0 μM), student's t test.
Cultured hippocampal neurons were transfected with a firefly luciferase reporter plasmid containing a cyclic AMP response (CRE) element. At 12DIV, the cells were treated with 50 μM of compound for 6 hours, then CRE-dependent transcription activity was assayed by measuring luciferase levels.
Freshly isolated embryonic cortical neurons were transfected with a luciferase reporter gene (Cre-Luc) linked to CREB activation following the ACM lipofectamine method using Lipofectamine 2000, a cationic liposome based reagent (Invitrogen). […] Transfection was performed using 1 μL Lipofectamine 2000 and 0.4 μg DNA per well. Neurons were then treated with test samples for time periods of 6 hours. After treatment, the cells were washed with ice-cold DPBS and 100 μL of 1× luciferase lysis buffer (Promega) was added. The plates were placed in −20° C. to freeze the cells, after which they were thawed to facilitate lysis. The lysates were transferred onto white bottom plates and assayed for renilla luciferase using the luciferase assay kit (Promega). Increased CREB activation in the neurons leads to an enhanced luciferase production and this was quantified using a Promega GloMax™ 96 microplate luminometer. […] BDNF and rolipram were used as positive controls.

Row | Compound | neuronal survival following NMDA treatment (LDH) [1] | cell survival of cortical neurons treated with Aβ25-35 (MTT) [3] | other results
1 | 12-O-cis/trans-cinnamoyl-20-acetyl-8,14-seco-sarcostin 3-O-β-D-Cymaropyranosyl-(1→4)-β-D-Digitoxopyranosyl-(1→4)-β-D-Oleandropyranosyl-(1→4)-β-D-Oleandropyranoside [GAG-C102] | promoted neuronal survival | – | –
2 | CC(C)=CCOc1c2occc2cc2ccc(=O)oc12 [GAG-C81, 8-(3-methylbut-2-enyloxy)-psoralen] | – | – | cell survival of cortical neurons in the absence of B27 (MTT) [2]: promoted cell survival; neuroprotective effect in the absence of B27 (MTT) ([2]; 1-50 μM): exhibited neuroprotective effects in a dose-dependent manner
3 | CC1(C)CC[C@@]2(C(=O)O)CC[C@]3(C)C(=CCC4[C@@]5(C)CCC(O)C(C)(CO)C5CC[C@]43C)C2C1 (stereo partly drawn) [GAG-C74, 3β,23-dihydroxyolean-12-en-28-oic acid] | – | promoted cell survival | –
4 | 3-O-β-D-Cymaropyranose-(1→4)-β-D-Digitoxopyranose-12-trans-cinnamyl-20-acetyl-8,14-seco-sacrostin [GAG-C30] | – | promoted cell survival | –
5 | COc1cc([C@@H]2c3cc(OC)c(O)cc3C=C(C)[C@H]2C)ccc1O [GAG-C70, (7′α,8′β)-4,4′-dihydroxyl-3,3′-dimethyoxyl-6,7′-cycloligane-7-en] | promoted neuronal survival | promoted cell survival | ERK phosphorylation ([4]; 0.1-10 μM, 15 min (FIGS. 16, 18, 20)): induced ERK phosphorylation
6 | COc1cc(C2c3cc(OC)c(O)cc3C3Oc4c(C(C)=O)ccc(O)c4CC3C2CO)ccc1O (stereo not shown) [GAG-C61, 4-hydroxy-3′-methoxy-(7′E)-5′7-epoxy-8,4′-oxyneolignane-7′ en] | promoted neuronal survival | – | –
7 | CC1CC(C)(C)C2C=C(CC/C=C/C1=O)C(=O)O2 (stereo not shown) [GAG-C65, 8-oxohumula-2, 6(E)-dien-1,12-olide] | promoted neuronal survival | – | –
8 | 12-O-cis/trans-cinnamoylsacrostin 3-O-β-D-Cymaropyranosyl-(1→4)-β-D-Oleandropyranosyl-(1→4)-β-D-Oleandropyranoside [GAG-C86] | promoted neuronal survival | – | –
9 | COc1cc(C2Oc3c(OC)ccc(C(C)=O)c3C2C)ccc1O (stereo not shown) [GAG-C51, 3-methoxyl-4,4′-dihydroxy-1″-athanone-3′7-epoxy-8,2″-neolignane] | promoted neuronal survival | – | –
10 | COc1c2ccoc2c(OCC=C(C)C)c2oc(=O)ccc12 [GAG-C82, 8-(3-methylbut-2-enyloxy)-5-methoxyl-psoralen] | – | – | cell survival of cortical neurons in the absence of B27 (MTT) [2]: promoted cell survival
11 | COc1cc(C)cc(C(O)C(O)c2cc(C)ccc2OC)c1 (stereo not shown) [GAG-C80, 2-(2-methoxy-5-methylphenyl)-1-(3-methoxy-5-methylphenyl)-ethane-1,2-diol] | – | – | cell survival of cortical neurons in the absence of B27 (MTT) [2]: promoted cell survival; concentration showing neuroprotective effect in the absence of B27 (MTT) [2]: 10 to 30 µM
12 | C[C@]12CC[C@H]3[C@@H](C=CC4=CC(=O)CC[C@@]43C)[C@@H]1CC(C(=O)O)C2 (stereo partly shown) [GAG-C63, 4,6-diene-16-carboxylic acid-3-oxo-androstane] | – | – | CRE-dependent transcription activity (luciferase) [5]: enhances CRE-dependent transcription
13 | 12-O-cis/trans-cinnamoyl-20-acetyl-8,14-seco-sarcostin 3-O-β-D-Cymaropyranosyl-(1→4)-β-D-Cymaropyranosyl-(1→4)-β-D-Digitoxopyranosyl-(1→4)-β-D-Cymaropyranosyl-(1→4)-β-D-Oleandropyranoside [GAG-C104] | promoted neuronal survival | promoted cell survival | –
14 | 12-O-cis/trans-cinnamoyl-20-acetyl-8,14-seco-sarcostin 3-O-β-D-Cymaropyranosyl-(1→4)-β-D-Oleandropyranosyl-(1→4)-O-D-Oleandropyranoside [GAG-C90] | promoted neuronal survival | – | –
15 | C/C=C/c1ccc(OC(C)C(O)c2cc(OC)c(O)c(OC)c2)c(OC)c1 (stereo not shown) [GAG-C121, 3,3′,5-trimethoxy-4,7-dihydroxyl-(7′E)-(8-O-4′)-neolignan-7′en] | – | promoted cell survival | –
16 | COC1CC(OC2C(C)CC(OC3C(C)OC(OC4CC[C@@]5(C)C(=CC[C@]6(O)C5C[C@@H](OC(=O)C=Cc5ccccc5)[C@@]5(C)[C@]6(O)CC[C@@]5(O)C(C)=O)C4)CC3OC)CC2OC)OC(C)C1O (stereo partly drawn) [GAG-C87, Ikemagenin 3-O-β-D-Cymaropyranosyl-(1→4)-β-D-Oleandropyranosyl-(1→4)-β-D-Oleandropyranoside] | promoted neuronal survival | – | –
17 | C/C=C/c1cc(O)c(OC(C)C(O)c2cc(OC)c(O)c(OC)c2)c(OC)c1 (stereo not shown) [GAG-C59, 4,5′,7-trihydroxy-3, 3′,5-trimethyoxyl-hydroxy-(7′E)-(8-O-4)-neolignan-7′ en] | – | promoted cell survival | –
18 | COC1CC(OC2C(C)OC(OC3C(C)OC(OC4C(C)OC(OC5CC[C@@]6(C)C(=CC[C@]7(O)C6C[C@@H](OC(=O)/C=C(\C)C(C)C)[C@@]6(C)[C@]7(O)CC[C@@]6(O)C(C)=O)C5)CC4OC)CC3OC)CC2OC)OC(C)C1O (stereo partly drawn) [GAG-C92, Caudatin 3-O-β-D-Cymaropyranosyl-(1→4)-β-D-Cymaropyranosyl-(1→4)-β-D-Oleandropyranosyl-(1→4)-β-D-Oleandropyranoside] | promoted neuronal survival | – | –
19 | 12-O-cis/trans-cinnamoyl-20-acetyl-8,14-seco-sarcostin 3-O-β-D-Cymaropyranosyl-(1→4)-β-D-Cymaropyranosyl-(1→4)-β-D-Oleandropyranosyl-(1→4)-β-D-Oleandropyranoside [GAG-C96] | promoted neuronal survival | – | –
20 | C/C=C/c1ccc(OC(C)C(O)c2ccc(O)c(O)c2)c(OC)c1 (stereo not shown) [GAG-C13, 3,4,7-trihydroxyl-3′-methoxy-(7′E)-(8-O-4′)-neolignan-7′-en] | promoted neuronal survival | promoted cell survival | cell survival of cortical neurons in the absence of B27 (MTT) [2]: promoted cell survival
21 | (K)-methyl 15-hydroxy-15-methoxy-12-oxopentadec-13-enoate [GAG-C78] | – | – | cell survival of cortical neurons in the absence of B27 (MTT) [2]: promoted cell survival; concentration showing neuroprotective effect in the absence of B27 (MTT) [2]: 10 to 30 µM; ERK phosphorylation time course ([4]; 30 μM): significantly induced ERK phosphorylation in cortical neurons from 15 min and persistently to 180 min; CREB phosphorylation ([4]; 30 μM, 15 min of incubation): induced CREB phosphorylation
